Experimental data taken from US9586963B2 (GENFIT, priority 2011, dated 2017).
Counter-ions that a name gives are not always drawn.

These compounds were tested against T1, Rev-Erb alpha (Homo sapiens, UniProt P20393) (assay: M2H (mammalian two-hybrid) cellular activation assay of Rev-Erb alpha). Details: M2H assay, HEK293 cells, Gal4-Rev-Erb alpha / VP16-NCoR, luciferase reporter.
T1 sequence (P20393 284-614 limits assumed): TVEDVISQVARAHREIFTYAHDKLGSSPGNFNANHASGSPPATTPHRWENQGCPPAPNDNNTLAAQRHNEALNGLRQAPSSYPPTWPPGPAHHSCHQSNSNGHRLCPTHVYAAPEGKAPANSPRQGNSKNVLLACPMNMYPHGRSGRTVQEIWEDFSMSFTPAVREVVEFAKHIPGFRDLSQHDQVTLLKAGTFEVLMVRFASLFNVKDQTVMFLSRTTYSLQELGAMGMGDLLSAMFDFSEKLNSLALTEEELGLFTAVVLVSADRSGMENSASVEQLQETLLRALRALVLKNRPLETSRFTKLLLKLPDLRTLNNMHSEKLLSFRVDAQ
Assay type: cell-based
In short: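 Six-point dose-response, 18 h, 37 °C, serum-free, in HEK293 cells carrying a Gal4-RE luciferase reporter with Gal4-Rev-Erb alpha or beta plus VP16-NCoR (corepressor interaction readout). EC50 and TOP activation (%) derived from luminescence across four experiments.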

Row | SMILES | EC50 [µM]
1 | CC(C)(C)OC(=O)NCc1ccc(Oc2ccc3nnc(Cl)n3n2)c(-c2ccccc2)c1 [Cpd.4-170, 3-chloro-6-(5-(tertbutyloxycarbonylaminomethyl)biphenyl-2-yloxy)-[1,2,4]triazolo[4,3-b]pyridazine] | 0.1 to 1
2 | NCc1ccc(Oc2ccc3nnc(Cl)n3n2)c(-c2ccccc2)c1 [Cpd.4-171, 3-chloro-6-(5-aminomethylbiphenyl-2-yloxy)-[1,2,4]triazolo[4,3-b]pyridazine, trifluoroacetic acid salt] | > 6
3 | CC(=O)OCc1ccc(-c2ccccc2)c(Oc2ccc3nnc(Cl)n3n2)c1 [Cpd.4-172, 3-chloro-6-(4-methylcarbonyloxymethylbiphenyl-2-yloxy)-[1,2,4]triazolo[4,3-b]pyridazine] | 0.1 to 1
4 | CS(=O)(=O)Nc1ccc(Oc2ccc3nnc(Cl)n3n2)c(-c2ccccc2)c1 [Cpd.4-173, 3-chloro-6-(5-methylsulfonamidobiphenyl-2-yloxy)-[1,2,4]triazolo[4,3-b]pyridazine] | 1 to 6
5 | CC(=O)Nc1ccc(Oc2ccc3nnc(Cl)n3n2)c(-c2ccccc2)c1 [Cpd.4-174, 3-chloro-6-(5-acetamidobiphenyl-2-yloxy)-[1,2,4]triazolo[4,3-b]pyridazine] | 1 to 6
6 | Clc1nnc2ccc(Oc3cc(CNCC4CCCCC4)ccc3-c3ccccc3)nn12 [Cpd.4-176, 3-chloro-6-(4-(cyclohexylmethyl)aminomethylbiphenyl-2-yloxy)-[1,2,4]triazolo[4,3-b]pyridazine] | 1 to 6
7 | CN1CCN(Cc2ccc(-c3ccccc3)c(Oc3ccc4nnc(Cl)n4n3)c2)CC1 [Cpd.4-177, 3-chloro-6-(4-(1-methylpiperazin-4-ylmethyl)biphenyl-2-yloxy)-[1,2,4]triazolo[4,3-b]pyridazine] | > 6
8 | Clc1nnc2ccc(Oc3cc(CNC4CC4)ccc3-c3ccccc3)nn12 [Cpd.4-178, 3-chloro-6-(4-cyclopropylaminomethylbiphenyl-2-yloxy)-[1,2,4]triazolo[4,3-b]pyridazine] | 1 to 6
9 | Clc1nnc2ccc(Oc3cc(CNC4CCCC4)ccc3-c3ccccc3)nn12 [Cpd.4-179, 3-chloro-6-(4-cyclopentylaminomethylbiphenyl-2-yloxy)-[1,2,4]triazolo[4,3-b]pyridazine] | 1 to 6
10 | Clc1nnc2ccc(Oc3cc(CNCC4CCCO4)ccc3-c3ccccc3)nn12 (stereo not drawn) [Cpd.4-180] | > 6
11 | CS(=O)(=O)N1CCN(Cc2ccc(-c3ccccc3)c(Oc3ccc4nnc(Cl)n4n3)c2)CC1 [Cpd.4-182, 3-chloro-6-(4-(4-methanesulfonylpiperazin-1-ylmethyl)biphenyl-2-yloxy)-[1,2,4]triazolo[4,3-b]pyridazine] | 1 to 6
12 | CC(C)(C)OC(=O)NCc1ccc(-c2ccccc2)c(Oc2ccc3nnc(Cl)n3n2)c1 [Cpd.4-186, 3-chloro-6-(4-tertbutyloxycarbonylaminomethylbiphenyl-2-yloxy)-[1,2,4]triazolo[4,3-b]pyridazine] | 1 to 6
13 | CC(C)C(=O)Nc1ccc(Oc2ccc3nnc(Cl)n3n2)c(-c2ccccc2)c1 [Cpd.4-192, 3-chloro-6-(5-isopropylcarbonylamino-biphenyl-2-yloxy)-[1,2,4]triazolo[4,3-b]pyridazine] | 1 to 6
14 | Cc1nc(-c2ccc(-c3ccccc3)c(Oc3ccc4nnc(Cl)n4n3)c2)no1 [Cpd.4-197, 3-chloro-6-(5-(5-methyl-1,2,4-oxadiazol-3-yl)-2-(phenyl)phenoxy)-[1,2,4]triazolo[4,3-b]pyridazine] | 0.1 to 1
15 | Cc1nc(-c2ccc(Oc3ccc4nnc(Cl)n4n3)c(-c3ccccc3)c2)no1 [Cpd.4-198, 3-chloro-6-(4-(5-methyl-1,2,4-oxadiazol-3-yl)-2-(phenyl)phenoxy)-[1,2,4]triazolo[4,3-b]pyridazine] | 0.1 to 1
16 | Cc1nc(-c2ccc(-c3cccnc3)c(Oc3ccc4nnc(Cl)n4n3)c2)no1 [Cpd.4-199, 3-chloro-6-(5-(5-methyl-1,2,4-oxadiazol-3-yl)-2-(pyridin-3-yl)phenoxy)-[1,2,4]triazolo[4,3-b]pyridazine] | > 6
17 | FC(F)(F)c1ccc(-c2ccccc2)c(Oc2nn3c(Cl)nnc3c3ccccc23)c1 [Cpd.5-1, 3-chloro-6-(4-trifluoromethyl-biphenyl-2-yloxy)-[1,2,4]triazolo[3,4-a]phthalazine] | < 0.1
18 | Fc1ccc2c(Oc3cc(C(F)(F)F)ccc3-c3ccccc3)nn3c(Cl)nnc3c2c1 [Cpd.5-2, 3-chloro-6-(4-trifluoromethyl-biphenyl-2-yloxy)-9-fluoro-[1,2,4]triazolo[3,4-a]phthalazine] | 0.1 to 1

Row | SMILES | EC50 [µM]
19 | CCc1c(Oc2cc(C(F)(F)F)ccc2-c2ccccc2)nn2c(Cl)nnc2c1CC [Cpd.5-12, 3-chloro-7,8-diethyl-6-(4-trifluoromethyl-biphenyl-2-yloxy)-[1,2,4]triazolo[4,3-b]pyridazine] | 0.1 to 1
20 | Cc1ccc(-c2ccc(C(F)(F)F)cc2Oc2cc(C)c3nnc(Cl)n3n2)cn1 [Cpd.5-16, 3-chloro-8-methyl-6-(2-(6-methylpyridin-3-yl)-5-(trifluoromethyl)phenoxy)-[1,2,4]triazolo[4,3-b]pyridazine] | 0.1 to 1
21 | Cc1ccc(-c2ccc(C(F)(F)F)cc2Oc2nn3c(Cl)nnc3cc2C)cn1 [Cpd.5-17, 3-chloro-7-methyl-6-(2-(6-methylpyridin-3-yl)-5-(trifluoromethyl)phenoxy)-[1,2,4]triazolo[4,3-b]pyridazine] | 0.1 to 1
22 | Cc1ccc(-c2ccc(C(F)(F)F)cc2Oc2nn3c(Cl)nnc3c3ccccc23)cn1 [Cpd.5-18, 3-chloro-6-(2-(6-methylpyridin-3-yl)-5-(trifluoromethyl)phenoxy)-[1,2,4]triazolo[3,4-a]phthalazine] | 0.1 to 1
23 | Cc1ncccc1-c1ccc(C(F)(F)F)cc1Oc1cc(C)c2nnc(Cl)n2n1 [Cpd.5-19, 3-chloro-8-methyl-6-(2-(2-methylpyridin-3-yl)-5-(trifluoromethyl)phenoxy)-[1,2,4]triazolo[4,3-b]pyridazine] | 0.1 to 1
24 | Cc1cc2nnc(Cl)n2nc1Oc1cc(C(F)(F)F)ccc1-c1cccnc1C [Cpd.5-20, 3-chloro-7-methyl-6-(2-(2-methylpyridin-3-yl)-5-(trifluoromethyl)phenoxy)-[1,2,4]triazolo[4,3-b]pyridazine] | 0.1 to 1
25 | Cc1ncccc1-c1ccc(C(F)(F)F)cc1Oc1nn2c(Cl)nnc2c2ccccc12 [Cpd.5-21, 3-chloro-6-(2-(2-methylpyridin-3-yl)-5-(trifluoromethyl)phenoxy)-[1,2,4]triazolo[3,4-a]phthalazine] | 0.1 to 1
26 | FC(F)(F)c1ccc(-c2cncnc2)c(Oc2nn3c(Cl)nnc3c3ccccc23)c1 [Cpd.5-22, 3-chloro-6-(2-(pyrimidin-5-yl)-5-(trifluoromethyl)phenoxy)-[1,2,4]triazolo[3,4-a]phthalazine] | 0.1 to 1
27 | COc1ncccc1-c1ccc(C(F)(F)F)cc1Oc1nn2c(Cl)nnc2c(C)c1C [Cpd.5-25, 3-chloro-7,8-dimethyl-6-((2-(2-methoxypyridin-3-yl))-5-(trifluoromethyl)phenoxy)-[1,2,4]triazolo[4,3-b]pyridazine] | 1 to 6
28 | COc1ncc(C)cc1-c1ccc(C(F)(F)F)cc1Oc1nn2c(Cl)nnc2cc1C [Cpd.5-28, 3-chloro-7-methyl-6-((2-(2-methoxy-5-methylpyridin-3-yl))-5-(trifluoromethyl)phenoxy)-[1,2,4]triazolo[4,3-b]pyridazine] | 1 to 6
29 | Cc1cc2nnc(Cl)n2nc1Oc1cc(C(F)(F)F)ccc1-c1cncnc1 [Cpd.5-29, 3-chloro-7-methyl-6-(2-(pyrimidin-5-yl)-5-(trifluoromethyl)phenoxy)-[1,2,4]triazolo[4,3-b]pyridazine] | 1 to 6
30 | Cc1cc(Oc2cc(C(F)(F)F)ccc2-c2cncnc2)nn2c(Cl)nnc12 [Cpd.5-30, 3-chloro-8-methyl-6-(2-(pyrimidin-5-yl)-5-(trifluoromethyl)phenoxy)-[1,2,4]triazolo[4,3-b]pyridazine] | 1 to 6
31 | Cc1cc2nnc(Cl)n2nc1Oc1c(-c2cncnc2)ccc(C(F)(F)F)c1F [Cpd.5-31, 3-chloro-6-(2-fluoro-6-(pyrimidin-5-yl)-3-(trifluoromethyl)phenoxy)-7-methyl-[1,2,4]triazolo[4,3-b]pyridazine] | 1 to 6
32 | COc1ncc(-c2ccc(C(F)(F)F)cc2Oc2cc(C)c3nnc(Cl)n3n2)cn1 [Cpd.5-34, 3-chloro-8-methyl-6-((2-(2-methoxypyrimidin-5-yl))-5-(trifluoromethyl)phenoxy)-[1,2,4]triazolo[4,3-b]pyridazine] | 0.1 to 1
33 | COc1ncc(-c2ccc(C(F)(F)F)cc2Oc2nn3c(Cl)nnc3cc2C)cn1 [Cpd.5-35, 3-chloro-7-methyl-6-((2-(2-methoxypyrimidin-5-yl))-5-(trifluoromethyl)phenoxy)-[1,2,4]triazolo[4,3-b]pyridazine] | 1 to 6
34 | COc1ncc(-c2ccc(C(F)(F)F)cc2Oc2nn3c(Cl)nnc3c3ccccc23)cn1 [Cpd.5-36, 3-chloro-6-((2-(2-methoxypyrimidin-5-yl))-5-(trifluoromethyl)phenoxy)-[1,2,4]triazolo[3,4-a]phthalazine] | 0.1 to 1
35 | Cc1cc(Oc2cc(C(F)(F)F)ccc2-c2cncnc2C(C)C)nn2c(Cl)nnc12 [Cpd.5-38, 3-chloro-8-methyl-6-((2-(4-isopropylpyrimidin-5-yl))-5-(trifluoromethyl)phenoxy)-[1,2,4]triazolo[4,3-b]pyridazine] | 1 to 6

Same assay, conditions: M2H assay, HEK293 cells; relative to DMSO; at the tested dose; read-out: TOP activation

Row | SMILES | Emax [%]
36 | NCc1ccc(Oc2ccc3nnc(Cl)n3n2)c(-c2ccccc2)c1 [Cpd.4-171, 3-chloro-6-(5-aminomethylbiphenyl-2-yloxy)-[1,2,4]triazolo[4,3-b]pyridazine, trifluoroacetic acid salt] | > 130
37 | CN1CCN(Cc2ccc(-c3ccccc3)c(Oc3ccc4nnc(Cl)n4n3)c2)CC1 [Cpd.4-177, 3-chloro-6-(4-(1-methylpiperazin-4-ylmethyl)biphenyl-2-yloxy)-[1,2,4]triazolo[4,3-b]pyridazine] | > 130
38 | Clc1nnc2ccc(Oc3cc(CNCC4CCCO4)ccc3-c3ccccc3)nn12 (stereo not drawn) [Cpd.4-180] | > 130
39 | Cc1nc(-c2ccc(-c3cccnc3)c(Oc3ccc4nnc(Cl)n4n3)c2)no1 [Cpd.4-199, 3-chloro-6-(5-(5-methyl-1,2,4-oxadiazol-3-yl)-2-(pyridin-3-yl)phenoxy)-[1,2,4]triazolo[4,3-b]pyridazine] | > 130
